Results: patent publication US20240237646A1, “METHODS OF DECREASING PLANT INJURY AND IMPROVING CROP YIELD” (priority 2023, published 2024)

Columns and labels:
[1] = tested on: soybeans (Glycine max); details: fomesafen 350 g ai/ha alone
Description: The study was arranged in a randomized complete block design with 6 replicates in conventionally tilled soybeans (Glycine max).
Herbicides were applied in a water carrier of 20 gallons per acre and treatments were applied at first flower (V5/R1). All fomesafen treatments contained an adjuvant system of 1% v/v crop oil concentrate and 2.5% v/v urea ammonium nitrate as is consistent with product label instructions.

[2] = tested on: creeping bentgrass (Agrostis palustris) turf; details: 6 applications every two weeks, 8 visual ratings combined, trinexapac-ethyl 514, paclobutrazol 280, prohexadione-calcium 154, flurprimidol 15 g ai/ha, B Sure 19,091 ml/ha in mixtures
Description: Each plant growth regulator (PGR) combination was applied in 2 gallons of water per 1,000 square feet and applications were made 6 times with application intervals every two weeks. Visual injury was rated 8 times between June 8th and August 11th on a percent scale from 0 to 100 where 0 equals no visual response and 100 equals complete plant death.

[3] = tested on: cotton (Gossypium hirsutum); experiment: Six field studies, B Sure + trifloxysulfuron in cotton (visual injury); format: in vivo; details: trifloxysulfuron 8 g ai/ha alone, rated 2 to 3 weeks after application
Description: The studies were arranged in a randomized complete block design with 4 replicates in conventionally tilled cotton. Evaluations were combined over locations and plots were maintained weed free over the duration of the trial.
Herbicides were applied in a water carrier to cotton at three separate stages of growth: 1) cotyledon-2 leaf; 2) 3-4 leaf; and 3) 5 leaf or greater. All trifloxysulfuron treatments contained a nonionic surfactant at 0.25% v/v as is consistent with product label instructions. Treatments included in the trial were the following: 1) trifloxysulfuron 8 g ai/ha-cotyledon-2 leaf cotton; 2) trifloxysulfuron 8 g ai/ha+B Sure® 1,170 mls/ha-cotyledon-2 leaf cotton; 3) trifloxysulfuron 8 g ai/ha+B Sure® 2 pint/acre-cotyledon-2 leaf cotton; 4) trifloxysulfuron 8 g ai/ha-3-4 leaf cotton, 5) trifloxysulfuron 8 g ai/ha+B Sure® 1,170 mls/ha-3-4 leaf cotton; 6) trifloxysulfuron 8 g ai/ha+B Sure® 2,340 mls/ha-3-4 leaf cotton; 7) trifloxysulfuron 8 g ai/ha-5 leaf or greater cotton, 8) trifloxysulfuron 8 g ai/ha+B Sure® 1,170 mls/ha-5 leaf or greater cotton; 9) trifloxysulfuron 8 g ai/ha+B Sure® 2, 340 mls/ha-5 leaf or greater cotton; 10) Check.

[4] = tested on: genetically modified (GM) soybeans (Enlist E3® soybeans); experiment: Four field studies, B Sure + lactofen or 2,4-D in GM soybeans (yield); format: in vivo, Glycine max; details: for Yield (bushels/acre): lactofen 210 g ai/ha, 2,4-D choline salt 2,527 g ai/ha, check 62.2
Procedure: Four field studies were conducted in 2023 in the states of Ohio, Nebraska, Indiana, and Illinois to determine the influence of the “HYT plant ameliorant” B Sure® at 1,170 mls/ha on soybean (Glycine max) yield when applied in combinations with the herbicides lactofen at 210 g ai/ha and 2,4-D (as its choline salt) at 2,527 g ai/ha on genetically modified (GM) soybeans (Enlist E3® soybeans) created to tolerate applications of 2,4-D, glufosinate, and glyphosate. Treatments were applied using a water carrier with crop oil concentrate added to all treatments at 1% v/v and ammonium sulfate at 2.24 kg/ha added to herbicide containing treatments. Yields were adjusted to constant moisture and recorded in bushels/acre. […] All plots were maintained weed free.

[5] = tested on: genetically modified (GMO) soybeans engineered to resist 2,4-D; experiment: Study, B Sure + herbicides in GMO soybeans (canopy rating); format: in vivo, soybean; details: lactofen 218, 2,4-D choline 1064, chlorimuron 13 g ai/ha; for Canopy rating relative to % ground cover: GMO soybeans V3-R1, B Sure 1 pt/A in mixtures, larger = greater crop vigor; for % Increase in soybean canopy measure with B Sure ® added: herbicide + B Sure 1 pt/A compared to the herbicide applied alone
Description: Treatments included 1) B Sure® 1 pt/A; 2) Lactofen 218 g ai/ha; 3) Lactofen 218 g ai/ha+B Sure® 1 pt/A; 4) 2,4-D choline 1064 g ai/ha; 5) 2,4-D choline 1064 g ai/ha+B Sure® 1 pt/A; 6) chlorimuron 13 g ai/ha; 7) chlorimuron 13 g ai/ha+B Sure® 1 pt/A. Adjuvants applied varied by treatment and were consistent with product label recommendations. A preemergence herbicide was applied to all treatments in order to reduce competition from weed species that would increase variability in the study. A canopy rating was made which evaluated the % ground cover differences of the soybeans associated with the various treatments. In these measurements, the larger ground cover number represents a greater amount of soybean leaf tissue which represents greater crop vigor and overall soybean health.

[6] = tested on: creeping bentgrass (Agrostis stolonifera); experiment: Field study, B Sure + PCNB on creeping bentgrass (visual injury); details: PCNB 227 g ai/1,000 sq ft, B Sure 6 fl oz/1,000 sq ft in the mixture
Description: PCNB was applied at 227 g ai/per 1,000 square feet. […] Treatments were applied on July 14th using an application volume of 2 gallons per 1,000 square feet. Creeping bentgrass injury ratings were made five times corresponding to 3, 7, 10, 14 and 28 days after application (DAA).

## CS(=O)(=O)NC(=O)c1cc(Oc2ccc(C(F)(F)F)cc2Cl)ccc1[N+](=O)[O-] [Fomesafen, fomesafen]
[1]
  Soybean Yield (% increase over untreated check): 4.6%
[1]; soybean, applied at V5/R1, visual scale 0-100
  % Injury: 7%

## CC(C)(C)[C@@H](O)[C@@H](Cc1ccc(Cl)cc1)n1cncn1 (racemic) [Paclobutrazol]
[2]
  % Phytotoxicity: 10%

## COc1cc(OC)nc(NC(=O)NS(=O)(=O)c2ncccc2OCC(F)(F)F)n1 [Trifloxysulfuron, trifloxysulfuron]
[3]; 3-4 leaf
  % Injury: 15%
[3]; 5+ leaf
  % Injury: 5%
[3]; Cotyledon-2 leaf
  % Injury: 18%

## Prohexadione-calcium
[2]
  % Phytotoxicity: 12%

## C[N+](C)(C)CCO.O=C([O-])COc1ccc(Cl)cc1Cl [2,4-D Choline, 2,4-D choline salt]
[4]; B Sure 1,170 mls/ha, lactofen 210 g ai/ha, 2,4-D 2,527 g ai/ha
  soybean yield increase over the check: 3.1 bushels/acre
[4]; B Sure 1,170 mls/ha
  Yield (bushels/acre): 65.3 bushels/acre
[5]
  Canopy rating relative to % ground cover: 6.18
  % Increase in soybean canopy measure with B Sure ® added: 12.9%

## CCOC(=O)C(C)OC(=O)c1cc(Oc2ccc(C(F)(F)F)cc2Cl)ccc1[N+](=O)[O-] (centres unmarked) [Lactofen, lactofen]
[4]; B Sure 1,170 mls/ha
  Yield (bushels/acre): 61.5 bushels/acre
[4]; lactofen 210 g ai/ha
  soybean yield reduction over the untreated check: 0.7 bushels/acre
[5]
  Canopy rating relative to % ground cover: 2.99
  % Increase in soybean canopy measure with B Sure ® added: 7.4%

## COc1cc(Cl)nc(NC(=O)NS(=O)(=O)c2ccccc2C(=O)O)n1 [Chlorimuron, chlorimuron]
[5]
  Canopy rating relative to % ground cover: 6.25
  % Increase in soybean canopy measure with B Sure ® added: 10.9%

## CCOC(=O)C1CC(=O)C(=C(O)C2CC2)C(=O)C1 (centres unmarked) [Trinexapac-ethyl]
[2]
  % Phytotoxicity: 10%

## O=[N+]([O-])c1c(Cl)c(Cl)c(Cl)c(Cl)c1Cl [PCNB, pentachloronitrobenzene]
[6]; 3 days after application
  % Injury 3 DAA: 20%
[6]; 7 days after application
  % Injury 7 DAA: 100%
[6]; 10 days after application
  % Injury 10 DAA: 100%
[6]; 14 days after application
  % Injury 14 DAA: 100%
[6]; 28 days after application (end of trial)
  % Injury 28 DAA: ~100%
